Reference: paper PMC8538004, “Identification of a Novel Neuropeptide S Receptor Antagonist Scaffold Based on the SHA-68 Core” (Pharmaceuticals, 2021)

What was measured:
human NPSR-107I = target: T1, human NPSR-107I (Homo sapiens, UniProt Q6W5P4, N107I); test: Ca+2 mobilization assay (apparent Ke against NPS); assay type: cell-based; settings: for Kb: Calcium Mobilization, CHO-Gα16-hNPSR-107I cells, shift of NPS EC50; for NPSR antagonist activity in words: calcium mobilization, SAR discussion; for Loss of antagonist activity compared to SHA: compared with SHA-66 (Ke = 10 nM)
T1 construct: expressed in transfected cells
T1 sequence (Q6W5P4 1-371 N107I): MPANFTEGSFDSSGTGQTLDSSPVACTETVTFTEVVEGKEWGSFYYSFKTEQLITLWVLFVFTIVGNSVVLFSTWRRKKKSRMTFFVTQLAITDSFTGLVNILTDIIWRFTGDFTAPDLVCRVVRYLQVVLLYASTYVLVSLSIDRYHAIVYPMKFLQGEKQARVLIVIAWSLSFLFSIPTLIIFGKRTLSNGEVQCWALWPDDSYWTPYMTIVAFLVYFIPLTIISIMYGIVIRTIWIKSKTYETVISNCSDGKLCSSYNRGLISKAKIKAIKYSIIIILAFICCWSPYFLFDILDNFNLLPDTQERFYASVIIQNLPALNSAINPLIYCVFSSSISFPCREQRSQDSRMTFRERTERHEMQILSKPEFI
Procedure: A stable cell line overexpressing the human NPSR-107I was created in CHO-Gαq16 cells (RD-HGA16, Molecular Devices), as previously described. Briefly, CHO-Gαq16 cells were transfected with pcDNA 3.1 human NPSR-107I using Lipofectamine reagent. Transfected cells were plated into 10 cm^2 dishes 24 h post-transfection and were selected using Geneticin. After 2 weeks, individual clones were selected, grown to confluence, and screened in a functional 96-well calcium mobilization assay that measured the response to NPS (100 nM final). […] A final working clone was chosen for all subsequent studies based on NPS potency and the calcium mobilization signal window. CHO-Gα16-hNPSR-107I cells were cultured in Ham’s F12 media supplemented with 10% FBS, 100 units/mL penicillin, 100 μg/mL streptomycin, 200 μg/mL hygromycin, and 400 μg/mL geneticin. Media were purchased from HyClone (GE Life Sciences); FBS, penicillin/streptomycin, hygromycin, and geneticin were purchased from Invitrogen (Thermo Scientific). The day before the assay, cells were plated into 96-well black-walled assay plates at 25,000–40,000 cells/well in growth medium without selection antibiotics. Cells were incubated overnight at 37 °C, 5% CO2. The FLIPR Calcium 5 assay kit (Molecular Devices) was used according to the manufacturer’s instructions with minor modifications. Briefly, reconstituted dye was diluted in pre-warmed assay buffer (HBSS, 20 mM HEPES, 2.5 mM probenecid, pH 7.4 at 37 °C). Growth medium was removed, and the cells were gently washed with assay buffer. Calcium 5 dye was added to the cells and the plate was incubated for 45 min at 37 °C, 5% CO2. A single concentration of test compound and 10-point concentration–response curves of NPS (ranging from 100 nM to 1 pM) were prepared at 10× the desired final concentration. Cells were pretreated with the test compound or vehicle in a final concentration of 0.25% BSA/1% DMSO for 15 min at 37 °C. Assay plates were read with a FlexStation II instrument (excitation at 485 nm, detection at 525 nm, Molecular Devices). Calcium-mediated changes in fluorescence were monitored every 1.5 s over a 90 s time period. NPS was added during the read and the maximum kinetic […] (SoftMax [Max-Min], Molecular Devices) in relative fluorescent units (RFU) was measured. Data were fitted to a three-parameter logistic curve to generate EC50 values (GraphPad Prism 6.0). Antagonism was quantified by measuring the ratio of equi-active concentrations of agonist measured in the presence or absence of the antagonist. Apparent Ke values were calculated using the equation Ke = [L]/((EC50^+/EC50^−) − 1), where [L] is the concentration of test compound, EC50^+ is the EC50 of NPS with test compound, and EC50^– is the EC50 of NPS alone. Ke values were considered valid when the EC50^+/EC50^− ratio was at least 4. HBSS and HEPES were purchased from Gibco (Thermo Scientific); probenecid, BSA, and DMSO were purchased from Sigma-Aldrich.

NPSR = tested on: NPSR; set-up: method as in PMID 24964000, PMID 20615693, PMID 18337476, PMID 24171469, PMID 20510609; settings: Figure 1, known NPSR antagonists; cited from earlier work

SMILES	Kb (human NPSR-107I) [nM]	further results
CC(C)CC1(c2ccccc2O)OC(=O)C2=C1CN(C(=O)NCc1ccccc1)CC2 (centres unmarked) [Compound 23, N-Benzyl-3-(2-hydroxyphenyl)-3-(2-methylpropyl)-1-oxo-1H,3H,4H,5H,6H,7H-furo[3,4-c]pyridine-5-carboxamide]	1500	
CCCCNC(=O)N1CCC2=C(C1)C(CC(C)C)(c1ccccc1)OC2=O (centres unmarked) [Compound 26, N-Butyl-3-(2-methylpropyl)-1-oxo-3-phenyl-1H,3H,4H,5H,6H,7H-furo[3,4-c]pyridine-5-carboxamide]	238	NPSR antagonist activity in words (human NPSR-107I): reduction in potency
CC(C)CC1(c2ccccc2)OC(=O)N2CCN(C(=O)NCc3ccccc3)CC21 (centres unmarked) [Compound 29, N-Benzyl-3-(2-methylpropyl)-1-oxo-3-phenyl-hexahydro-1H-[1,3]oxazolo[3,4-a]piperazine-5-carboxamide]		NPSR antagonist activity in words (human NPSR-107I): completely inactive
COc1ccc2c(c1)C(CC1CCOCC1)(c1ccc(Cl)cc1)n1ccnc1-2 (centres unmarked) [B]		IC50 (NPSR): 82 nM
CC(C)CC1(CC(C)C)OC(=O)C2=C1CN(C(=O)NCc1ccccc1)CC2 [Compound 16, N-Benzyl-3,3-bis(2-methylpropyl)-1-oxo-1H,3H,4H,5H,6H,7H-furo[3,4-c]pyridine-5-carboxamide]	734	
Cc1c(P(=S)(c2ccccc2)c2ccccc2)n2ccccc2[n+]1C/C=C/c1ccccc1 [D]		IC50 (NPSR): 9.6 nM
CC(C)CC1(c2cccc(Cl)c2)OC(=O)C2=C1CN(C(=O)NCc1ccccc1)CC2 (centres unmarked) [Compound 25, N-Benzyl-3-(3-chlorophenyl)-3-(2-methylpropyl)-1-oxo-1H,3H,4H,5H,6H,7H-furo[3,4-c]pyridine-5-carboxamide]	136	
O=C1OC(c2ccccc2)(c2ccccc2)C2=C1CN(C(=O)NCc1ccccc1)CC2 [Compound 7, N-Benzyl-3-oxo-1,1-diphenyl-1H,3H,4H,5H,6H,7H-furo[3,4-c]pyridine-5-carboxamide]	1130	NPSR antagonist activity in words (human NPSR-107I): significant loss of potency
CC(C)(C)CC1(c2ccccc2)OC(=O)C2=C1CN(C(=O)NCc1ccccc1)CC2 (centres unmarked) [Compound 13, N-Benzyl-3-(2,2-dimethylpropyl)-1-oxo-3-phenyl-1H,3H,4H,5H,6H,7H-furo[3,4-c]pyridine-5-carboxamide]	146	
CCCCNC(=O)N1CC[C@H]2C(=O)OC(c3ccccc3)(c3ccccc3)[C@H]2C1 [Compound 4, (3,7)-N-Butyl-1-oxo-3,3-diphenyl-octahydrofuro[3,4-c]pyridine-5-carboxamide]		NPSR antagonist activity in words (human NPSR-107I): lacked antagonist activity
CC(C)CC1(c2ccc3ccccc3c2)OC(=O)C2=C1CN(C(=O)NCc1ccccc1)CC2 (centres unmarked) [Compound 22, N-Benzyl-3-(2-methylpropyl)-3-(naphthalen-2-yl)-1-oxo-1H,3H,4H,5H,6H,7H-furo[3,4-c]pyridine-5-carboxamide]	500	
CC(C)CC1(c2ccccc2)OC(=O)C2=C1CN(C(=O)NCCN1CCCCC1)CC2 (centres unmarked) [Compound 27, 3-(2-Methylpropyl)-1-oxo-3-phenyl-N-[2-(piperidin-1-yl)Ethyl]-1H,3H,4H,5H,6H,7H-furo[3,4-c]pyridine-5-carboxamide]	566	NPSR antagonist activity in words (human NPSR-107I): reduction in potency
O=C1OC(Cc2ccccc2)(c2ccccc2)C2=C1CCN(C(=O)NCc1ccccc1)C2 (centres unmarked) [Compound 12, N-3-Dibenzyl-1-oxo-3-phenyl-1H,3H,4H,5H,6H,7H-furo[3,4-c]pyridine-5-carboxamide]	606	
CCCCC1(c2ccccc2)OC(=O)C2=C1CN(C(=O)NCc1ccccc1)CC2 (centres unmarked) [Compound 11, N-Benzyl-3-butyl-1-oxo-3-phenyl-1H,3H,4H,5H,6H,7H-furo[3,4-c]pyridine-5-carboxamide]	165	
O=C1OC2(C3=C1CCN(C(=O)NCc1ccccc1)C3)c1ccccc1CCc1ccccc12 [Compound 9, N-Benzyl-3-oxo-4,5,6,7-tetrahydro-3H-spiro[furo[3,4-c]pyridine-1,2′-tricyclo[9.4.0.0^{3,8}]pentadecane]-1′(11′),3′,5′,7′,12′,14′-hexaene-6-carboxamide]	1660	
CCC(C)(CCN1CCOCC1)N(Cc1cc2ccccc2n(C)c1=O)C(=O)C1CCCCC1 (centres unmarked) [A]		IC50 (NPSR): 23 nM
O=C1OC(c2ccccc2)(c2ccccc2)[C@@H]2CN(C(=O)NCc3ccccc3)CC[C@@H]12 [Compound 5, (3,7)-N-Benzyl-1-oxo-3,3-diphenyl-octahydrofuro[3,4-c]pyridine-5-carboxamide]	170	
CC(C)CC1(c2ccccc2OCc2ccccc2)OC(=O)C2=C1CN(C(=O)NCc1ccccc1)CC2 (centres unmarked) [Compound 24, N-Benzyl-3-[2-(benzyloxy)phenyl]-3-(2-methylpropyl)-1-oxo-1H,3H,4H,5H,6H,7H-furo[3,4-c]pyridine-5-carboxamide]	572	
O=C(NCc1ccccc1)N1CCN2C(=O)OC(c3ccccc3)(c3ccccc3)C2C1 (centres unmarked) [SHA-66]		Ke (NPSR): 10 nM
O=C(c1ccccc1N1Cn2c(ccc2-c2ccccc2)C1=O)N1CCCCC1 [C]		IC50 (NPSR): 10 nM
CC(C)CC1(c2ccccc2)OC(=O)C2=C1CN(C(=O)NCc1ccccc1)CC2 (centres unmarked) [Compound 14, N-Benzyl-3-(2-methylpropyl)-1-oxo-3-phenyl-1H,3H,4H,5H,6H,7H-furo[3,4-c]pyridine-5-carboxamide]	118	
CCCCNC(=O)N1CCC2=C(C1)C(c1ccccc1)(c1ccccc1)OC2=O [Compound 2, N-Butyl-1-oxo-3,3-diphenyl-1H,3H,4H,5H,6H,7H-furo[3,4-c]pyridine-5-carboxamide]	515	Loss of antagonist activity compared to SHA (human NPSR-107I): roughly 50 fold
O=C(NCCN1CCCCC1)N1CCN2C(=O)OC(c3ccccc3)(c3ccccc3)[C@H]2C1 [RTI-118]		Ke (NPSR): 36 nM
CC(C)CC1(c2ccccc2)OC(=O)C2=C1CN(C(=O)NCc1ccccc1)CC2 (centres unmarked) [Compound 14a, N-Benzyl-3-(2-methylpropyl)-1-oxo-3-phenyl-1H,3H,4H,5H,6H,7H-furo[3,4-c]pyridine-5-carboxamide]	432	
CCCCNC(=O)N1CC[C@H]2C(=O)OC(c3ccccc3)(c3ccccc3)[C@@H]2C1 [Compound 6, (3,7)-N-Butyl-1-oxo-3,3-diphenyl-octahydrofuro[3,4-c]pyridine-5-carboxamide]	260	
O=C1OC(c2ccccc2)(c2ccccc2)C2=C1CCN(C(=O)NCc1ccccc1)C2 [Compound 1, N-Benzyl-1-oxo-3,3-diphenyl-1H,3H,4H,5H,6H,7H-furo[3,4-c]pyridine-5-carboxamide]	522	Loss of antagonist activity compared to SHA (human NPSR-107I): roughly 50 fold
O=C1OC(c2ccccc2)(c2ccccc2)[C@H]2CN(C(=O)NCc3ccccc3)CC[C@@H]12 [Compound 3, (3,7)-N-Benzyl-1-oxo-3,3-diphenyl-octahydrofuro[3,4-c]pyridine-5-carboxamide]	761	NPSR antagonist activity in words (human NPSR-107I): lacked antagonist activity
CC(C)CC1(c2ccccc2)OC(=O)C2=C1CN(C(=S)NCCN1CCCCC1)CC2 (centres unmarked) [Compound 28, 3-(2-Methylpropyl)-1-oxo-3-phenyl-N-[2-(piperidin-1-yl)ethyl]-1H,3H,4H,5H,6H,7H-furo[3,4-c]pyridine-5-carbothioamide]	386	NPSR antagonist activity in words (human NPSR-107I): reduction in potency
